Our source for the Emax and EC50 values is patent publication US20250230155A1 (Vanderbilt University, priority 2021, published 2025).

A word on the Emax: it is the maximal effect, on the per cent scale that the assay sets. One may read the EC50 as the concentration needed to bring the measured effect to its halfway point.

In this assay the target is T1, human mAChR M4 (Homo sapiens, UniProt P08173).
T1 construct: expressed in transfected cells
T1 sequence (P08173 1-479): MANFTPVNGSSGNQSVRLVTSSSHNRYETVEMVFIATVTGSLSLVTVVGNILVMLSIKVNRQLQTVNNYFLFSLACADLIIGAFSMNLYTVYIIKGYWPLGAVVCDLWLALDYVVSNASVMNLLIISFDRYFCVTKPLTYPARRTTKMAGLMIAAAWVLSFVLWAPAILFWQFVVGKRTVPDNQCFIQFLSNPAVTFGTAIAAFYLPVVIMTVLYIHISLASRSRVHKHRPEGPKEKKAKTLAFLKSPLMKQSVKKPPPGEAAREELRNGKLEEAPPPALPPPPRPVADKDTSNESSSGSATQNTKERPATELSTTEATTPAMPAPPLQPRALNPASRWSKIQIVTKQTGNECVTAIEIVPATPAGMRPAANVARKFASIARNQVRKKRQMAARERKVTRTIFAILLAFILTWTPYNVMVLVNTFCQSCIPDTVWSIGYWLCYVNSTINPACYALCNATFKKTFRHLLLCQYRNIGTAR
The assay can be described thus: mAChR M4 cell-based functional assay (calcium mobilization, CHO-K1 hM4-Gqi5 cells). As to conditions: for Emax at 30 µM: CHO-K1, % ACh maximum at 30 μM, human M4; for EC50: positive allosteric modulator activity, increase in the EC20 acetylcholine response, CHO-K1 hM4-Gqi5 cells, read-out: Human M4 EC50. Summed up: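 CHO-K1 cells stably expressing human M4 with chimeric Gqi5, loaded with Fluo-4 AM; compounds given as 11-point 1:3 curves and calcium flux read on FDSS at 1 Hz. Acetylcholine EC20 added at 144 s, EC80 at 230 s; agonist, PAM (EC20 potentiation) and antagonist (EC80 inhibition) EC50/Emax from four-parameter fits.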
In general terms: Calcium flux is commonly read through the fluorescence of an indicator in the cells.

Take `Cc1cc(C(=O)N2CCCC2(C)C)nnc1N1CCc2ncc(N3CCCn4nccc43)cc2C1` [Example 529, (6-(3-(6,7-dihydropyrazolo[1,5-a]pyrimidin-4(5H)-yl)-7,8-dihydro-1,6-naphthyridin-6(5/I)-yl)-5-methylpyridazin-3-yl)(2,2-dimethylpyrrolidin-1-yl)methanone]: the Emax at 30 µM was 68% and the EC50 came to 570 nM.

As for `Cc1cc(C(=O)N2CCCC2)nnc1N1CCc2ncc(-n3cccn3)cc2C1` [Example 530, (6-(3-(1H-pyrazol-1-yl)-7,8-dihydro-1,6-naphthyridin-6(5H)-yl)-5-methylpyridazin-3-yl)(pyrrolidin-1-yl)methanone], the Emax at 30 µM came to 81% and the EC50 was found to be 3030 nM.

On to `Cc1cc(C(=O)N2CCC2)nnc1N1CCc2ncc(-n3cccn3)cc2C1` [Example 531, (6-(3-(1H-pyrazol-1-yl)-7,8-dihydro-1,6-naphthyridin-6(5H)-yl)-5-methylpyridazin-3-yl)(azetidin-1-yl)methanone], for which the Emax at 30 µM worked out at 83% and the EC50 came out at 241 nM.

As for `Cc1cc(C(=O)N2CC(Cl)C2)nnc1N1CCc2ncc(-n3cccn3)cc2C1` [Example 532, (6-(3-(1H-pyrazol-1-yl)-7,8-dihydro-1,6-naphthyridin-6(5H)-yl)-5-methylpyridazin-3-yl)(3-chloroazetidin-1-yl)methanone], the maximal response (Emax) at 30 µM is 90% and the EC50 is 78 nM.

On to `Cc1cc(C(=O)N2CC(F)(F)C2)nnc1N1CCc2ncc(-n3cccn3)cc2C1` [Example 533, (6-(3-(1H-pyrazol-1-yl)-7,8-dihydro-1,6-naphthyridin-6(5H)-yl)-5-methylpyridazin-3-yl)(3,3-difluoroazetidin-1-yl)methanone], for which the Emax at 30 µM stood at 88% and the EC50 is 107 nM.

For `Cc1cc(C(=O)N2CC(C)(O)C2)nnc1N1CCc2ncc(-n3cccn3)cc2C1` [Example 534, (6-(3-(1H-pyrazol-1-yl)-7,8-dihydro-1,6-naphthyridin-6(5H)-yl)-5-methylpyridazin-3-yl)(3-hydroxy-3-methylazetidin-1-yl)methanone], the Emax at 30 µM amounted to 88% and the EC50 came to 322 nM.

`Cc1cc(C(=O)N2CC(c3cccnc3)C2)nnc1N1CCc2ncc(-n3cccn3)cc2C1` [Example 535, (6-(3-(1H-pyrazol-1-yl)-7,8-dihydro-1,6-naphthyridin-6(5H)-yl)-5-methylpyridazin-3-yl)(3-(pyridin-3-yl)azetidin-1-yl)methanone]: the Emax at 30 µM was determined as 84% and the EC50 amounted to 85 nM.

`Cc1cc(C(=O)N2CCCC2)nnc1N1CCc2ncc(N3CCO[C@H](C)C3)cc2C1` [Example 536, (R)-(5-methyl-6-(3-(2-methylmorpholino)-7,8-dihydro-1,6-naphthyridin-6(5H)-yl)pyridazin-3-yl)(pyrrolidin-1-yl)methanone]: the Emax at 30 µM worked out at 86% and the EC50 worked out at 1150 nM.

As to `Cc1cc(C(=O)N2CCC2)nnc1N1CCc2ncc(N3CCO[C@H](C)C3)cc2C1` [Example 537, (R)-azetidin-1-yl(5-methyl-6-(3-(2-methylmorpholino)-7,8-dihydro-1,6-naphthyridin-6(5H)-yl)pyridazin-3-yl)methanone], the Emax at 30 µM worked out at 96% and the EC50 is 131 nM.

As to `Cc1cc(C(=O)N2CC(Cl)C2)nnc1N1CCc2ncc(N3CCO[C@H](C)C3)cc2C1` [Example 538, (R)-(3-chloroazetidin-1-yl)(5-methyl-6-(3-(2-methylmorpholino)-7,8-dihydro-1,6-naphthyridin-6(5H)-yl)pyridazin-3-yl)methanone], the maximum response (Emax) at 30 µM was 103% and the EC50 is 54 nM.

Consider `Cc1cc(C(=O)N2CC(F)(F)C2)nnc1N1CCc2ncc(N3CCO[C@H](C)C3)cc2C1` [Example 539, (R)-(3,3-difluoroazetidin-1-yl)(5-methyl-6-(3-(2-methylmorpholino)-7,8-dihydro-1,6-naphthyridin-6(5H)-yl)pyridazin-3-yl)methanone], for which the Emax at 30 µM is 101% and the 50% effective concentration (EC50) stood at 51 nM.

With `Cc1cc(C(=O)N2CC(C)(O)C2)nnc1N1CCc2ncc(N3CCO[C@H](C)C3)cc2C1` [Example 540, (R)-(3-hydroxy-3-methylazetidin-1-yl)(5-methyl-6-(3-(2-methylmorpholino)-7,8-dihydro-1,6-naphthyridin-6(5H)-yl)pyridazin-3-yl)methanone], the maximal effect (Emax) at 30 µM was found to be 100% and the EC50 amounted to 268 nM.

For `Cc1cc(C(=O)N2CC(c3cccnc3)C2)nnc1N1CCc2ncc(N3CCO[C@H](C)C3)cc2C1` [Example 541, (R)-(5-methyl-6-(3-(2-methylmorpholino)-7,8-dihydro-1,6-naphthyridin-6(5H)-yl)pyridazin-3-yl)(3-(pyridin-3-yl)azetidin-1-yl)methanone], the Emax at 30 µM was 101% and the EC50 was determined as 61 nM.

Take `Cc1cc(C(=O)N2CC3(COC3)C2)nnc1N1CCc2ncc(N3CCCn4nccc43)cc2C1` [Example 542, (6-(3-(6,7-dihydropyrazolo[1,5-a]pyrimidin-4(5H)-yl)-7,8-dihydro-1,6-naphthyridin-6(5H)-yl)-5-methylpyridazin-3-yl)(2-oxa-6-azaspiro[3.3]heptan-6-yl)methanone]: the Emax at 30 µM came out at 113% and the EC50 stood at 64 nM.

In the case of `Cc1cc(C(=O)NC2(c3ccccn3)CC2)nnc1N1CCc2ncc(N3CCCn4nccc43)cc2C1` [Example 543, 6-(3-(6,7-dihydropyrazolo[1,5-a]pyrimidin-4(5H)-yl)-7,8-dihydro-1,6-naphthyridin-6(5H)-yl)-5-methyl-N-(1-(pyridin-2-yl)cyclopropyl)pyridazine-3-carboxamide], the Emax at 30 µM is 114% and the EC50 amounted to 47 nM.

Take `Cc1cc(C(=O)N2CC(F)(F)C2)nnc1N1CCc2ncc(N3CCCn4nccc43)cc2C1` [Example 544, (3,3-difluoroazetidin-1-yl)(6-(3-(6,7-dihydropyrazolo[1,5-a]pyrimidin-4(5H)-yl)-7,8-dihydro-1,6-naphthyridin-6(5/)-yl)-5-methylpyridazin-3-yl)methanone]: the maximal effect (Emax) at 30 µM turned out to be 105% and the EC50 came out at 45 nM.

With `Cc1cc(C(=O)N2CCC2)nnc1N1CCc2ncc(N3CCCn4nccc43)cc2C1` [Example 545, azetidin-1-yl(6-(3-(6,7-dihydropyrazolo[1,5-a]pyrimidin-4(5H)-yl)-7,8-dihydro-1,6-naphthyridin-6(5H)-yl)-5-methylpyridazin-3-yl)methanone], the Emax at 30 µM is 125% and the EC50 was found to be 46 nM.

For the compound `Cc1cc(C(=O)N2CC(C)(F)C2)nnc1N1CCc2ncc(N3CCCn4nccc43)cc2C1` [Example 546, (6-(3-(6,7-dihydropyrazolo[1,5-a]pyrimidin-4(5H)-yl)-7,8-dihydro-1,6-naphthyridin-6(5H)-yl)-5-methylpyridazin-3-yl)(3-fluoro-3-methylazetidin-1-yl)methanone], the Emax at 30 µM came out at 116% and the EC50 came out at 16 nM.

As to `Cc1cc(C(=O)N2CC(C)(O)C2)nnc1N1CCc2ncc(N3CCCn4nccc43)cc2C1` [Example 547, (6-(3-(6,7-dihydropyrazolo[1,5-a]pyrimidin-4(5H)-yl)-7,8-dihydro-1,6-naphthyridin-6(5H)-yl)-5-methylpyridazin-3-yl)(3-hydroxy-3-methylazetidin-1-yl)methanone], the Emax at 30 µM came to 122% and the EC50 came out at 40 nM.

With `COC1CN(C(=O)c2cc(C)c(N3CCc4ncc(N5CCCn6nccc65)cc4C3)nn2)C1` [Example 548, (6-(3-(6,7-dihydropyrazolo[1,5-a]pyrimidin-4(5H)-yl)-7,8-dihydro-1,6-naphthyridin-6(5H)-yl)-5-methylpyridazin-3-yl)(3-methoxyazetidin-1-yl)methanone], the Emax at 30 µM turned out to be 115% and the EC50 stood at 25 nM.

Take `Cc1cc(C(=O)N2CC(C)C2)nnc1N1CCc2ncc(N3CCCn4nccc43)cc2C1` [Example 549, (6-(3-(6,7-dihydropyrazolo[1,5-a]pyrimidin-4(5H)-yl)-7,8-dihydro-1,6-naphthyridin-6(5H)-yl)-5-methylpyridazin-3-yl)(3-methylazetidin-1-yl)methanone]: the Emax at 30 µM came to 120% and the EC50 was found to be 56 nM.

For the compound `Cc1cc(C(=O)N2CCC2C)nnc1N1CCc2ncc(N3CCCn4nccc43)cc2C1` (stereo not shown) [Example 550, (6-(3-(6,7-dihydropyrazolo[1,5-a]pyrimidin-4(5H)-yl)-7,8-dihydro-1,6-naphthyridin-6(5H)-yl)-5-methylpyridazin-3-yl)(2-methylazetidin-1-yl)methanone], the Emax at 30 µM worked out at 111% and the concentration giving a half-maximal response (EC50) was 86 nM.

Consider `Cc1cc(C(=O)N2CC(F)C2)nnc1N1CCc2ncc(N3CCCn4nccc43)cc2C1` [Example 551, (6-(3-(6,7-dihydropyrazolo[1,5-a]pyrimidin-4(5H)-yl)-7,8-dihydro-1,6-naphthyridin-6(5H)-yl)-5-methylpyridazin-3-yl)(3-fluoroazetidin-1-yl)methanone], for which the Emax at 30 µM worked out at 111% and the EC50 amounted to 44 nM.
